Patent US20020086861A1, “Fused 1,2,4- thiadiazine derivatives, their preparation and use” (priority 1998, published 2002)
One block for each compound: values may come before it.

Assays:
obese Zucker rats = conditions: cited from earlier work
BB-rats = conditions: cited from earlier work
[1] = target: T1, KATP-channels on pancreatic beta-cells (Homo sapiens, UniProt Q09428); conditions: by an activation of KATP-channels on pancreatic beta-cells; cited from earlier work
T1 construct: host or cells: pancreatic beta-cells
T1 sequence (Q09428 whole entry): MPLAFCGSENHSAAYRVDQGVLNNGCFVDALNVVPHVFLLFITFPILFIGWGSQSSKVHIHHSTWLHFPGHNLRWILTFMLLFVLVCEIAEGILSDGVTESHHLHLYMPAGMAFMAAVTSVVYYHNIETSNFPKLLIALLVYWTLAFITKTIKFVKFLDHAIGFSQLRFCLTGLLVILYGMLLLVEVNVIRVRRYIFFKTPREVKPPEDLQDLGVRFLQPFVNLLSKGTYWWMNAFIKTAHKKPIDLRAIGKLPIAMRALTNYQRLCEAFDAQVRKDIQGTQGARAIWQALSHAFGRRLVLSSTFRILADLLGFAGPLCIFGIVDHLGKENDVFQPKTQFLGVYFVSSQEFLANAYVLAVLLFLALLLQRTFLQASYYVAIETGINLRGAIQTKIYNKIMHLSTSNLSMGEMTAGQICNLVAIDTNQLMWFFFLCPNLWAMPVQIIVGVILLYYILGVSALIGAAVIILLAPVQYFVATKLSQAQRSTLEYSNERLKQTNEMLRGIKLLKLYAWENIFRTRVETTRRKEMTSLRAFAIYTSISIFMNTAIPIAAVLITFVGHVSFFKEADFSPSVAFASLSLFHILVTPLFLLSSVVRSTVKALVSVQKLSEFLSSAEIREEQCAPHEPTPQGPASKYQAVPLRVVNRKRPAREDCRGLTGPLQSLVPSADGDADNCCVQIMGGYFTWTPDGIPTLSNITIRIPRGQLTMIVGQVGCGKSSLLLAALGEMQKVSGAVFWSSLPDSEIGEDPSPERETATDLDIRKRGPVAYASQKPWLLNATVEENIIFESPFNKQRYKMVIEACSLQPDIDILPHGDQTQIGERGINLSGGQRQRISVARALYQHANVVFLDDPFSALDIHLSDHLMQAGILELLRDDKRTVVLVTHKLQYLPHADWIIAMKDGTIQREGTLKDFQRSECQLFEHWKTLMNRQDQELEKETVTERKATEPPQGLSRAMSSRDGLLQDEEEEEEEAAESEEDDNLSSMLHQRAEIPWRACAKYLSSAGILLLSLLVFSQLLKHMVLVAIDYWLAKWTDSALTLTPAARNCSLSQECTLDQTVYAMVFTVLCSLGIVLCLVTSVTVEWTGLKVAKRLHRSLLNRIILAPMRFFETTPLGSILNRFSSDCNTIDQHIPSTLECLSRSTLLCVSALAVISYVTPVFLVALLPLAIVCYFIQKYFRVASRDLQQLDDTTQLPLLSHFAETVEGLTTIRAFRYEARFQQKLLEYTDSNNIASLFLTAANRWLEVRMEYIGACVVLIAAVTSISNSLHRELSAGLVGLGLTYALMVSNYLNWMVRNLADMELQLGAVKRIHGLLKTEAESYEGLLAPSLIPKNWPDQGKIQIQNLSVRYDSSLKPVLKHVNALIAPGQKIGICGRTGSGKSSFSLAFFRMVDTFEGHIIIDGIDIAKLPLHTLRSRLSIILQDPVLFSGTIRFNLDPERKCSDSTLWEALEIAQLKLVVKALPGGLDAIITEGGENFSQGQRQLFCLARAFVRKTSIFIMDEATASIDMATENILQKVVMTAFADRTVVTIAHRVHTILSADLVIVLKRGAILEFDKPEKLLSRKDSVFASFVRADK
T1 sequence (Q14654 whole entry partner): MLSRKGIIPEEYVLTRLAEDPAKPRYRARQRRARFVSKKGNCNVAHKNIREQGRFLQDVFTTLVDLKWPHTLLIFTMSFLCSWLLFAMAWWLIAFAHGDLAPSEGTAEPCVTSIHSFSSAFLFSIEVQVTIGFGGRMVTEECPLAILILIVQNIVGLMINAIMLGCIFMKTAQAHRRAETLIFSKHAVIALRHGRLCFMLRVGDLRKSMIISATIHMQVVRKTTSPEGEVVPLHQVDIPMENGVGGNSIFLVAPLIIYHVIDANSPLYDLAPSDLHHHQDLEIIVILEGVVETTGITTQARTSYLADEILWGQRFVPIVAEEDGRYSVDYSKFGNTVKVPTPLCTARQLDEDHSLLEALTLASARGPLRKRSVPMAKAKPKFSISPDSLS

melting point: 224 to 226 °C
Structure (SMILES): CC(C)(CO)NC1=NS(=O)(=O)c2sc(Cl)cc2N1 [Example 4, 6-Chloro-3-(2-hydroxy-1,1-dimethylethylamino)-4H-thieno[3,2-e]-1,2,4-thiadiazine 1,1-dioxide]

melting point: 339 to 340 °C
Structure (SMILES): O=S1(=O)N=C(NC23CC4CC(CC(C4)C2)C3)Nc2cc(Cl)sc21 [Example 6, 3-(1-Adamantyl)amino-6-chloro-4H-thieno[3,2-e]-1,2,4-thiadiazine 1,1-dioxide]

melting point: 213 to 214 °C
Structure (SMILES): O=S1(=O)N=C(NC2(CO)CCCC2)Nc2cc(Cl)sc21 [Example 9, 6-Chloro-3-(1-hydroxymethylcyclopentyl)amino-4H-thieno[3,2-e]-1,2,4-thiadiazine 1,1-dioxide]

melting point: ~ 360 °C (dec.)
Structure (SMILES): CC(C)(NC1=NS(=O)(=O)c2sc(Cl)cc2N1)c1ccccc1 [Example 10, 6-Chloro-3-(1-methyl-1-phenylethyl)amino-4H-thieno[3,2-e]-1,2,4-thiadiazine 1,1-dioxide]

melting point: 294 to 296 °C
Structure (SMILES): CC1(NC2=NS(=O)(=O)c3sc(Cl)cc3N2)CCC1 [Example 13, 6-Chloro-3-(1-methylcyclobutyl)amino-4H-thieno[3,2-e]-1,2,4-thiadiazine 1,1-dioxide]

Structure (SMILES): CC1=Nc2ccc(Cl)cc2S(=O)(=O)N1 [diazoxide, 7-chloro-3-methyl-2H-1,2,4-benzothiadiazine 1,1-dioxide]
glucose tolerance (obese Zucker rats): improve glucose tolerance | insulin receptor binding (obese Zucker rats): increase insulin receptor binding | insulin secretion (obese Zucker rats): decrease insulin secretion | weight gain (obese Zucker rats): decrease weight gain | onset of diabetes (BB-rats): delay the onset of diabetes | insulin release [1]: inhibit insulin release
